Patent US20080220066A1 (HENDERSON MORLEY PLC, priority 2005, published 2008)
In brackets after ≈: the same amount, converted by molar mass. Several values for one entry are separate records, joined by “and”; a condition that tells them apart may be missing. Equal entries are not always repeated. Where two headings read alike, the source gives them in different places.

Columns and labels:
[1] = test system: Varicella Zoster Virus (VZV); assay: microbe, parasite or virus in culture; conditions: Human alphaherpesvirus 3, MRC5, read-out: Digoxin IC50
MRC5 cells [2] = assay: MRC5 cell replication; conditions: Frusemide 1.0 mg/ml; Digoxin 0.05 μg/ml; both at their VZV ID50 concentrations
[3] = test system: Varicella Zoster Virus (VZV)
MRC5 cells [4] = conditions: uninfected cells; drug(s) at VZV ID 50 concentrations
MRC5 cells [5] = assay: MRC5 cell morphology / tolerance; conditions: Frusemide 1.0 mg/ml; Digoxin 0.05 ug/ml; combined dosage at individual ID 50; 72 hours
[6] = test system: Herpes simplex virus (HSV); assay: HSV standard plaque inhibition assay; type: cell-based
Excerpt: Using Herpes simplex virus (HSV), 50% plaque inhibitory dose (1D50) were established using the standard plaque inhibition assay.

physchem = conditions: 32 °C, aqueous with cosolvent or surfactant or cyclodextrin, thermodynamic from solid
Cytomegalovirus = assay: 50% plaque inhibitory concentration, Cytomegalovirus; conditions: Human betaherpesvirus 5, MRC5, read-out: Digoxin IC50
[7] = Description: Permeation experiments were carried out using all glass Franz-type cells incorporating callous plantar skin between a donor and receptor phase. Callous cuttings of approximately 0.6 cm diameter were required to fit the customised ‘franz’ cells used. Consequently, an in vitro permeation study was conducted that used 5 cells per gel treatment, with no more than a total of 15 cells being run simultaneously. […] An infinite dose of gel (˜1 g) was added to each donor compartment via syringe and PEG400, being used as a receptor phase in each, thereby enabling adequate ‘sink’ conditions, limiting hydrodynamic boundary effects and tissue swelling effects. The applied gel was occluded with glass cover slips and the cells stirred in a thermostatically controlled water bath, maintaining the skin temperature at 32° C. […] A total of five replicates were carried our for each gel. All samples were immediately analysed by HPLC.
The breakthrough time was taken from the point at which permeant was first detected in the receptor phase (dependent on the MDL for each permeant). Lag times were calculated by extrapolating the linear section of the cumulative amount permeated (steady state flux) to the X-axis (time).

Adenovirus = assay: 50% plaque inhibitory concentration, Adenovirus; conditions: unidentified adenovirus, A549, read-out: Digoxin IC50
[8] = for Flux: Q24 divided by 24
[9] = test system: Herpes simplex virus (HSV); assay: HSV virus yield (infectious virus particle production); type: cell-based; conditions: solvent as listed per compound; Torasemide at 90 μg/ml
[10] = Saturated solubility in solvents and co-solvent mixes at 32° C
[11] = ‘Max’ Furosemide Gel Formulation

## C[C@H]1O[C@@H](O[C@H]2[C@@H](O)C[C@H](O[C@H]3[C@@H](O)C[C@H](O[C@H]4CC[C@@]5(C)[C@H](CC[C@@H]6[C@@H]5C[C@@H](O)[C@]5(C)[C@@H](C7=CC(=O)OC7)CC[C@]65O)C4)O[C@@H]3C)O[C@@H]2C)C[C@H](O)[C@@H]1O [Digoxin]
[1]
  IC50: 0.02 ± 0.0075 µg/mL (≈ 0.0256 µM)
MRC5 cells [2]
  replication of uninfected MRC5 cells: replicated to normal yields
[3]; Digoxin 0.025 ug/ml, HIGH MOI
  VZV plaques: TNTC
[3]; Digoxin 0.025 ug/ml, INTERMEDIATE MOI
  VZV plaques: TNTC
[3]; Digoxin 0.025 ug/ml, LOW MOI, control 61
  VZV plaques: 55^
[3]; Digoxin 0.050 ug/ml, HIGH MOI
  VZV plaques: TNTC
[3]; Digoxin 0.050 ug/ml, INTERMEDIATE MOI
  VZV plaques: TNTC
[3]; Digoxin 0.050 ug/ml, LOW MOI, control 61
  VZV plaques: 21^3
[3]; Digoxin 0.100 ug/ml, HIGH MOI
  VZV plaques: 0^4
[3]; Digoxin 0.100 ug/ml, INTERMEDIATE MOI
  VZV plaques: 0^4
[3]; Digoxin 0.100 ug/ml, LOW MOI, control 61
  VZV plaques: 0^4
[3]; Frusemide at 1.0 mg/ml, Digoxin at 0.05 ug/ml
  VZV plaque formation inhibited by: 50%
[3]; High MOI (100 × Low), drug(s) at IC50
  VZV plaques: TNTC
[3]; Intermediate MOI (10 × Low), drug(s) at IC50
  VZV plaques: TNTC
[3]; Low MOI, drug(s) at IC50, Control 61
  VZV plaques: 21 and 21^5
[3]; each at respective IC50, Low MOI
  VZV plaque formation inhibited by: about 50%
MRC5 cells [4]
  MRC5 cell metabolism, MTT assay: normal levels of metabolism
MRC5 cells [5]
  tolerance by MRC5 cells (morphology, replication): very well tolerated
[6]
  ICVT activity: potent ICVT activity
  ID50: 60 ng per ml
  comparative ‘ICVT-ivities’: as effective as Lanoxin
[6]; BHK-21, read-out: Digoxin IC50
  IC50: 0.03 µg/mL (≈ 0.0384 µM)
[6]; MRC5, read-out: Digoxin IC50
  IC50: 0.02 ± 0.0075 µg/mL (≈ 0.0256 µM)
[6]; Vero, read-out: Digoxin IC50
  IC50: 0.06 µg/mL (≈ 0.0768 µM)
physchem
  solubility at 24 h: 433 µg/mL (≈ 554 µM)
Cytomegalovirus
  IC50: 0.02 ± 0.0075 µg/mL (≈ 0.0256 µM)
[7]; 40:40:20 Prototype gel
  Lag time: 100 h
  Permeation co-efficient: 1.1 × 10^−3 cmhr^−1
  Steady state flux: 1.14 ± 0.28 μc cm^−2hr^−1
[7]; Dig/Fur Ampule Gel Formulation
  Breakthrough time: ~24 h
  Lag time: 82 h
  Steady state flux: 0.069 μc cm^−2hr^−1
[7]; at 144 hours
  reduction of amount permeated, prototype versus ‘Max’ Digoxin gel: 3.36 fold
[7]; prototype gel
  steady state of flux: 1.14±0.28 μg cm^−2 hr^−1
[7]; prototype gel, at 144 hours
  amount permeated: 30 μg cm^−2
[7]; ‘Max’ Digoxin Gel Formulation
  Lag time: 18 h
  Steady state flux: 1.015 μc cm^−2hr^−1
[7]; ‘Max’ Digoxin Gel Formulation (50:40:10, 8% HPC, pH 5)
  Breakthrough time: ~1 h
[7]; ‘Max’ Digoxin gel formulation
  steady state of flux: 1.015 μg cm^−2 hr^−1
[7]; ‘Max’ Digoxin gel, at 144 hours
  amount permeated: 101 μg cm^−2
[7]; [11]
  Lag time: 68 h
  Steady state flux: 0.455 μc cm^−2hr^−1
[7]; ‘Max’ Furosemide Gel Formulation (50:20:20:10, 8% HPC, pH 5)
  Breakthrough time: ~12 h
Adenovirus
  IC50: 0.077 ± 0.022 µg/mL (≈ 0.0986 µM)
Feline herpesvirus; each drug at its IC50, alone or both combined, No Drug 50
  Virus particles per cell: 0.75
Feline herpesvirus; each drug at its IC50, individually or in combination
  production of infectious virus reduced by: 98.5%
Feline herpesvirus; each drug individually at its IC50
  remaining low level of virus replication: 0.5%
[8]; 40:40:20 gels
  maximum concentrations observed in the receptor phase: 42.47 µg/mL
[8]; Ampule Formulation
  Release date: 8.1 μg cm^−2 h^0.5
  Flux: 1.4 μg cm^−2 h^−1
[8]; Ampule Formulation (8% HPC)
  Q24: 34 μg cm^−2
[8]; Gel 1:1, pH 7
  % applied dose: 1.6%
  Release Rate: 3.48 μg cm^−2 h^0.5
  Flux: 0.59 μg cm^−2 h^−1
[8]; Gel 1:1, prototype 40:40:20 mix, pH 7, 24 h
  Q24: 14.07 μg cm^−2
[8]; Gel 14:1 (F:D), prototype 40:40:20 mix, […] 981NF, pH 5, 24 h
  Q24: 42.47 μg cm^−2
[8]; Gel 14:1, pH 5
  Flux: 1.77 μg cm^−2 h^−1
[8]; Gel 14:1, pH 5, assuming 2 g of gel in donor
  % applied dose: 4.0%
[8]; Gel 14:1, pH 5, gradient of square root of time plot
  Release Rate: 10.18 μg cm^−2 h^0.5
[8]; Gel 14:1, pH 7
  % applied dose: 1.6%
  Flux: 0.73 μg cm^−2 h^−1
[8]; Gel 14:1, pH 9
  % applied dose: 0.1%
  Flux: 0.14 μg cm^−2 h^−1
[8]; Gel 14:1, prototype 40:40:20 mix, pH 7, 24 h
  Q24: 17.62 μg cm^−2
[8]; Gel 14:1, prototype 40:40:20 mix, pH 9, 24 h
  Q24: 3.34 μg cm^−2
[8]; HPC Formulation
  Release date: 245 μg cm^−2 h^0.5 and 243 μg cm^−2 h^0.5
  Flux: 39 μg cm^−2 h^−1
[8]; HPC Formulation (revised 50:40:10 gel, 8% HPC, pH 5, 14:1)
  Q24: 934 μg cm^−2
[8]; Ultrez Formulation
  Release date: 274 μg cm^−2 h^0.5
  Flux: 45 μg cm^−2 h^−1
[8]; Ultrez Formulation (revised 50:40:10 gel, […] Ultrez, pH 5, 14:1)
  Q24: 1138 μg cm^−2
[8]; pH 7
  reduction of release rate, 1:1 Gel versus 1:14 Gel: 1.2 fold
[9]
  HSV yield: HSV yield reduced
[10]; 32° C
  solubility in water: relatively insoluble in water
[10]; 32 °C, organic solvent or mixture, thermodynamic from solid
  solubility at 24 h: 6270 µg/mL (≈ 8020 µM)
[10]; 40:40:20 co-solvents mix
  number of moles in saturated solution: 0.55 μmol cm^−3
  saturation limit: 433 μg cm^−3
[10]; 50:40:10 versus 40:40:20
  increase in solubility, second versus first co-solvent mix: −15 fold
[10]; ethanol, propylene glycol, PEG400, water, 32° C
  solubility in each individual solvent: highest solubility in ethanol and propylene glycol with relatively low solubility in PEG400 and water
